{
  "source": "patent US20120016009A1",
  "about": "“Optimized Methods For Delivery Of DSRNA Targeting The PCSK9 Gene” (priority 2008, published 2012)",
  "note": "In the oligonucleotide strings, read from the 5' end, every base follows the letter of its sugar. An asterisk marks phosphorothioate; unmarked linkages are phosphodiester. Other units and linkages are bracketed, terminal groups are in braces. A string of capitals states the bases alone. d = 2'-deoxy (DNA); r = 2'-OH (RNA)",
  "data": [
    {"test_system": "PCSK9 mRNA", "experiment": "PCSK9 siRNA screening in HepG2 cells (lipofectamine 2000 transfection, PCSK9 mRNA by Quantigene, normalized to GAP-DH)", "format": "cell-based, human", "details": "not given", "outline": "(§1)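 PCSK9 silencing was assessed in HepG2 cells by lipofectamine 2000 siRNA transfection in 96-well plates. Twenty-four hours later, lysates were analyzed with the Quantigene Explore Kit, with PCSK9 signal normalized to GAP-DH. Eight datapoints were collected per siRNA, and remaining transcript was expressed as a percentage of cells treated with an unrelated control siRNA duplex.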", "units": {"IC50": "nM"}, "values": [
      {"substance": "AD-9597: PCSK9 siRNA (sense rArGrCrCrArArGrCrCrUrCrUrUrCrUrUrArCrUdT*dT; antisense rArGrUrArArGrArArGrArGrGrCrUrUrGrGrCrUdT*dT)", "IC50": 0.04},
      {"substance": "AD-9605: PCSK9 siRNA (sense rUrGrGrUrGrArArGrArUrGrArGrUrGrGrCrGrAdT*dT; antisense rUrCrGrCrCrArCrUrCrArUrCrUrUrCrArCrCrAdT*dT)", "IC50": 0.27},
      {"substance": "AD-9607: PCSK9 siRNA (sense rGrGrArGrCrUrGrGrUrGrCrUrArGrCrCrUrUrGdT*dT; antisense rCrArArGrGrCrUrArGrCrArCrCrArGrCrUrCrCdT*dT)", "IC50": 0.2}
    ]},
    {"test_system": "PCSK9 mRNA", "experiment": "PCSK9 siRNA screening in HepG2 cells (lipofectamine 2000 transfection, PCSK9 mRNA by Quantigene, normalized to GAP-DH)", "format": "cell-based, human", "details": "3 nM siRNA", "outline": "as §1", "units": {"Mean percent remaining mRNA transcript at siRNA concentration/in cell type 3 nM/HepG2": "%"}, "values": [
      {"substance": "AD-9595: PCSK9 siRNA (sense rCrUrGrArGrGrArCrCrArGrCrGrGrGrUrArCrUdT*dT; antisense rArGrUrArCrCrCrGrCrUrGrGrUrCrCrUrCrArGdT*dT)", "Mean percent remaining mRNA transcript at siRNA concentration/in cell type 3 nM/HepG2": 32},
      {"substance": "AD-9597: PCSK9 siRNA (sense rArGrCrCrArArGrCrCrUrCrUrUrCrUrUrArCrUdT*dT; antisense rArGrUrArArGrArArGrArGrGrCrUrUrGrGrCrUdT*dT)", "Mean percent remaining mRNA transcript at siRNA concentration/in cell type 3 nM/HepG2": 21},
      {"substance": "AD-9605: PCSK9 siRNA (sense rUrGrGrUrGrArArGrArUrGrArGrUrGrGrCrGrAdT*dT; antisense rUrCrGrCrCrArCrUrCrArUrCrUrUrCrArCrCrAdT*dT)", "Mean percent remaining mRNA transcript at siRNA concentration/in cell type 3 nM/HepG2": 31},
      {"substance": "AD-9607: PCSK9 siRNA (sense rGrGrArGrCrUrGrGrUrGrCrUrArGrCrCrUrUrGdT*dT; antisense rCrArArGrGrCrUrArGrCrArCrCrArGrCrUrCrCdT*dT)", "Mean percent remaining mRNA transcript at siRNA concentration/in cell type 3 nM/HepG2": 28}
    ]},
    {"test_system": "PCSK9 mRNA", "experiment": "PCSK9 siRNA screening in HepG2 cells (lipofectamine 2000 transfection, PCSK9 mRNA by Quantigene, normalized to GAP-DH)", "format": "cell-based, human", "details": "30 nM siRNA", "outline": "as §1", "units": {"Mean percent remaining mRNA transcript at siRNA concentration/in cell type 30 nM/HepG2": "%"}, "values": [
      {"substance": "AD-9595: PCSK9 siRNA (sense rCrUrGrArGrGrArCrCrArGrCrGrGrGrUrArCrUdT*dT; antisense rArGrUrArCrCrCrGrCrUrGrGrUrCrCrUrCrArGdT*dT)", "Mean percent remaining mRNA transcript at siRNA concentration/in cell type 30 nM/HepG2": 31},
      {"substance": "AD-9596: PCSK9 siRNA (sense rGrArArGrArUrGrArGrUrGrGrCrGrArCrCrUrGdT*dT; antisense rCrArGrGrUrCrGrCrCrArCrUrCrArUrCrUrUrCdT*dT)", "Mean percent remaining mRNA transcript at siRNA concentration/in cell type 30 nM/HepG2": 37},
      {"substance": "AD-9597: PCSK9 siRNA (sense rArGrCrCrArArGrCrCrUrCrUrUrCrUrUrArCrUdT*dT; antisense rArGrUrArArGrArArGrArGrGrCrUrUrGrGrCrUdT*dT)", "Mean percent remaining mRNA transcript at siRNA concentration/in cell type 30 nM/HepG2": 23},
      {"substance": "AD-9598: PCSK9 siRNA (sense rCrCrUrGrGrUrGrGrArGrGrUrGrUrArUrCrUrCdT*dT; antisense rGrArGrArUrArCrArCrCrUrCrCrArCrCrArGrGdT*dT)", "Mean percent remaining mRNA transcript at siRNA concentration/in cell type 30 nM/HepG2": 83},
      {"substance": "AD-9599: PCSK9 siRNA (sense rUrUrCrUrGrGrArUrGrGrCrArUrCrUrArGrCrCdT*dT; antisense rGrGrCrUrArGrArUrGrCrCrArUrCrCrArGrArAdT*dT)", "Mean percent remaining mRNA transcript at siRNA concentration/in cell type 30 nM/HepG2": 139},
      {"substance": "AD-9600: PCSK9 siRNA (sense rGrUrCrGrUrGrCrUrGrGrUrCrArCrCrGrCrUrGdT*dT; antisense rCrArGrCrGrGrUrGrArCrCrArGrCrArCrGrArCdT*dT)", "Mean percent remaining mRNA transcript at siRNA concentration/in cell type 30 nM/HepG2": 112},
      {"substance": "AD-9601: PCSK9 siRNA (sense rArGrGrGrUrCrArUrGrGrUrCrArCrCrGrArCrUdT*dT; antisense rArGrUrCrGrGrUrGrArCrCrArUrGrArCrCrCrUdT*dT)", "Mean percent remaining mRNA transcript at siRNA concentration/in cell type 30 nM/HepG2": 111},
      {"substance": "AD-9602: PCSK9 siRNA (sense rCrArGrCrGrGrCrCrGrGrGrArUrGrCrCrGrGrCdT*dT; antisense rGrCrCrGrGrCrArUrCrCrCrGrGrCrCrGrCrUrGdT*dT)", "Mean percent remaining mRNA transcript at siRNA concentration/in cell type 30 nM/HepG2": 126},
      {"substance": "AD-9603: PCSK9 siRNA (sense rUrUrUrCrUrGrGrArUrGrGrCrArUrCrUrArGrCdT*dT; antisense rGrCrUrArGrArUrGrCrCrArUrCrCrArGrArArAdT*dT)", "Mean percent remaining mRNA transcript at siRNA concentration/in cell type 30 nM/HepG2": 123},
      {"substance": "AD-9604: PCSK9 siRNA (sense rCrUrCrArGrCrCrArArCrCrCrGrCrUrCrCrArCdT*dT; antisense rGrUrGrGrArGrCrGrGrGrUrUrGrGrCrUrGrArGdT*dT)", "Mean percent remaining mRNA transcript at siRNA concentration/in cell type 30 nM/HepG2": 49},
      {"substance": "AD-9605: PCSK9 siRNA (sense rUrGrGrUrGrArArGrArUrGrArGrUrGrGrCrGrAdT*dT; antisense rUrCrGrCrCrArCrUrCrArUrCrUrUrCrArCrCrAdT*dT)", "Mean percent remaining mRNA transcript at siRNA concentration/in cell type 30 nM/HepG2": 27},
      {"substance": "AD-9606: PCSK9 siRNA (sense rUrCrGrUrGrCrUrGrGrUrCrArCrCrGrCrUrGrCdT*dT; antisense rGrCrArGrCrGrGrUrGrArCrCrArGrCrArCrGrAdT*dT)", "Mean percent remaining mRNA transcript at siRNA concentration/in cell type 30 nM/HepG2": 107},
      {"substance": "AD-9607: PCSK9 siRNA (sense rGrGrArGrCrUrGrGrUrGrCrUrArGrCrCrUrUrGdT*dT; antisense rCrArArGrGrCrUrArGrCrArCrCrArGrCrUrCrCdT*dT)", "Mean percent remaining mRNA transcript at siRNA concentration/in cell type 30 nM/HepG2": 32},
      {"substance": "AD-9608: PCSK9 siRNA (sense rUrGrCrUrArGrCrCrUrUrGrCrGrUrUrCrCrGrAdT*dT; antisense rUrCrGrGrArArCrGrCrArArGrGrCrUrArGrCrAdT*dT)", "Mean percent remaining mRNA transcript at siRNA concentration/in cell type 30 nM/HepG2": 37}
    ]},
    {"test_system": "PCSK9 mRNA", "experiment": "PCSK9 siRNA screening in HepG2 cells (lipofectamine 2000 transfection, PCSK9 mRNA by Quantigene, normalized to GAP-DH)", "format": "cell-based, human", "details": "100 nM siRNA", "outline": "as §1", "units": {"Mean percent remaining mRNA transcript at siRNA concentration/in cell type 100 nM/HepG2": "%"}, "values": [
      {"substance": "AD-9598: PCSK9 siRNA (sense rCrCrUrGrGrUrGrGrArGrGrUrGrUrArUrCrUrCdT*dT; antisense rGrArGrArUrArCrArCrCrUrCrCrArCrCrArGrGdT*dT)", "Mean percent remaining mRNA transcript at siRNA concentration/in cell type 100 nM/HepG2": 69},
      {"substance": "AD-9604: PCSK9 siRNA (sense rCrUrCrArGrCrCrArArCrCrCrGrCrUrCrCrArCdT*dT; antisense rGrUrGrGrArGrCrGrGrGrUrUrGrGrCrUrGrArGdT*dT)", "Mean percent remaining mRNA transcript at siRNA concentration/in cell type 100 nM/HepG2": 35}
    ]}
  ]
}
